US12285454B2, “Anti-aging chinese herb extract, extraction method and use thereof” (HEALTH LIFE BIOSCIENCES INC, priority 2019, dated 2025)

Biological target: T1, telomerase (Homo sapiens, UniProt O14746)
T1 construct: endogenous in cells; host or cells: CCL137 normal human fibroblast cell line (ATCC)
Assay: Telomerase activity by PCR-ELISA (TRAP) in normal human fibroblasts
Format: cell-based
Settings: CCL137 normal human fibroblasts, X ± S, N = 9
From the text: • Telomerase Activity Assay Kit (Roche, Switzerland); • CCL137 human fibroblast cell lines (American Type Culture Collection (ATCC)); • Ginseng-Astragalus membranaceus extract: the extract prepared in Example 1 of the present invention; • Astragalus membranaceus extract: the Astragalus membranaceus extract prepared in Example 3 of the present invention; • Ginseng extract: the ginseng extract prepared in Example 2 of the present invention. Method The effects of different extracts on the telomerase activity were detected by PCR-ELISA. Principle: This method is based on establishment of Telomeric Repeat Amplification Protocol (TRAP), which is used for PCR Amplification of telomerase mediated derivatives and combined with the subsequent ELISA method. […]
For the sample of each group, to the EP tube, 20 μl of the denaturing reagent were added and marked, and 5 μl of the obtained product after the PCR amplification was added. […] The absorbance value is then detected at 450 nm using the microplate reader and A690 nm was taken as a reference, and the value of the negative control will be subtracted from the absorption value for the sample of each group. […]
The test results were analyzed and processed by a SPSS18.0 statistical software. […]
The test methods and procedures for detection of the telomerase activity were the same as the Test Example 1, and the measured results were shown in Table 5.

T1 sequence (O14746 whole entry): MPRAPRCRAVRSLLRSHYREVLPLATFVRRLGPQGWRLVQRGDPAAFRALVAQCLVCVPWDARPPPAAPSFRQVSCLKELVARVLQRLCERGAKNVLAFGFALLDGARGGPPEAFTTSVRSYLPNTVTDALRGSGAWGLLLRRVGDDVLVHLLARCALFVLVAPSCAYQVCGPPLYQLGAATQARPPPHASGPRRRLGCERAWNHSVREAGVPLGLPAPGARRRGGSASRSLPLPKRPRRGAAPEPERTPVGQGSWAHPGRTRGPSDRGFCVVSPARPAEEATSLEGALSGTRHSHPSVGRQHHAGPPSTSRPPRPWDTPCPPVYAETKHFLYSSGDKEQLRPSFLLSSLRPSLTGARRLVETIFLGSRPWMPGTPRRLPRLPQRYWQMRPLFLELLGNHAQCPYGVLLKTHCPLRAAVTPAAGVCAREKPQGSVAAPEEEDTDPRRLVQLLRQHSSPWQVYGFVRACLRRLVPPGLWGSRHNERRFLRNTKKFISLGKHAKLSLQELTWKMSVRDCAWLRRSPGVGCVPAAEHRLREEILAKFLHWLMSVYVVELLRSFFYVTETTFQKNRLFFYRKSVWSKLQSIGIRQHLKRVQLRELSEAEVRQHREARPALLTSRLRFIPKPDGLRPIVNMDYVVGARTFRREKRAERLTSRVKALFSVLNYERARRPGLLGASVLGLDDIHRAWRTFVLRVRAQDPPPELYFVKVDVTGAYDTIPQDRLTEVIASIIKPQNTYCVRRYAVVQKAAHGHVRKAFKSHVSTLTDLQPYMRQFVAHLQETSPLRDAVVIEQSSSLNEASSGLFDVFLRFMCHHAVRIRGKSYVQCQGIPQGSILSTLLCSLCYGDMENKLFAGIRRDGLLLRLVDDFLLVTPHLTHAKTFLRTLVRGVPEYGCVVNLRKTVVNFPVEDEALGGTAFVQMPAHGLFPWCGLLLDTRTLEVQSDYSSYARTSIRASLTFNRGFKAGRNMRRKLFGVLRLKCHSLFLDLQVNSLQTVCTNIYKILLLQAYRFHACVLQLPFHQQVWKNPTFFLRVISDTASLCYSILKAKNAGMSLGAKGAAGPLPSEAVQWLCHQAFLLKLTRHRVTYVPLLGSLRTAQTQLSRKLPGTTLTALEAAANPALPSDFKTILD

Astragaloside
Telomerase activity (ΔA) (Table 5, high concentration group, extract concentration 100 ug/mL): 0.436 | Telomerase activity (ΔA) (Table 5, medium concentration group, extract concentration 50 ug/mL): 0.453
